# In patent US10004770B2, “Production and use of bacterial histamine” (BioGaia AB, priority 2011, dated 2018):
# “Also recorded” adds a separate entry of the source.
# Experiments:
# [1] = tested on: TNF production from TLR2-activated THP-1 cells; experiment: TNF inhibition bioassay and TNF ELISA; type: cell-based, human; conditions: for block of TNF-inhibition by histamine: antagonist added before histamine 10^-5 M, ranitidine, cimetidine 10^-4-10^-6 M, indomethacin 10^-5-10^-6 M; for TNF production (TNF inhibition): THP-1 cells stimulated with 100 ng/mL Pam3Cys-SKKKK, 3.5 h, samples 5% v/v, histamine 10^-5 M, 6475 grown in glucose media (LDMIIIG)
# Procedure: In vitro experiments were performed with THP-1 cells (human monocytoid cell line, ATCC, Manassas, Va.) maintained in RPMI (ATCC) and heat-inactivated fetal bovine serum (Invitrogen, Carlsbad, Calif.) at 37° C., 5% CO2. MEK1/2, phospho-MEK1/2, ERK1/2, and phospho-ERK1/2 antibodies and MEK inhibitor U0126 were received from Cell Signaling Technology (Danvers, Mass.), and the β-Actin antibody was received from Abcam (Cambridge, Mass.). All other reagents were received from Sigma (St. Louis, Mo.) unless otherwise stated.
# Bacterial supernatants (10 mL) from a 24 h LDMIII culture were filter-sterilized using PVDF membrane filters (0.22 μm pore size, Millipore) and size fractionated as described above. One milliliter of the <3 kDa filtrate was speed vacuum dried and resuspended in RPMI media. These processed supernatant samples are termed conditioned media. All supernatants were normalized by volume to an OD600=1.0. Lyophilized fractions from the HILIC-HPLC separation were resuspended in 400 μL 10 mg/mL ammonium bicarbonate, speed vacuum dried, and resuspended in 400 μL RPMI media. Conditioned media and cell pellet wash fractions were tested for their ability to modulate TNF production in monocytoid cells. In brief, THP-1 cells (approximately 5×10^4 cells) were stimulated to produce TNF by the addition of 100 ng/mL Pam3Cys-SKKKK×3 HCl (EMC Microcollections, Tuebingen, Germany) as previously described. Inhibitors—H2 receptor antagonists, ranitidine and cimetidine (10^−4-10^−6 M), […], indomethacin (10^−5-10^−6 M), MEK inhibitor, U0126 (10 μM), and PKA inhibitor, H89 (N-[2-(p-bromocinnamylamino)ethyl]-5-isoquinolinesulfonamide dihydrochloride) (10^−5 M)—were added to the THP-1 cells followed by L. reuteri conditioned media or cell pellet wash fractions (5% v/v), histamine (10^−5 M), or dibutyryl cAMP (10^−3-10^−7 M). Plates were incubated at 37° C. and 5% CO2 for 3.5 h. THP-1 cells were pelleted (3000× g, 5 min, 4° C.), and quantitative ELISAs were used to determine TNF quantities in THP-1 cell supernatants according to the manufacturer's instructions (R&D Systems, Minneapolis, Minn.).
# MEK1/2 = MEK1/2 activation by Western blot; type: cell-based, human; conditions: activated THP-1 cells, compared to media control
# Procedure: (§1) THP-1 cells were lysed in ice-cold lysis buffer consisting of 50 mM Tris, pH 7.4, 250 mM NaCl, 5 mM EDTA, 50 mM NaF, 1 mM Na3VO4, 1% v/v Nonidet P40, 0.2% v/v NaN3, and protease and phosphatase inhibitors. Lysates were incubated on ice for 30 min, vortexed every 10 min, and cleared by centrifugation at 13,000×g for 10 min at 4° C. Protein concentrations were measured using the Quant-iT™ Protein Assay kit (Invitrogen) and a Qubit fluorometer according to the manufacturer's instructions. Equal amounts of proteins were loaded onto electrophoresis gels.
# (§2) Analysis of ERK1/2 activation was performed using specific phospho-ERK1/2 antibodies. Cell extracts were loaded on a 10% SDS-polyacrylamide gel and transferred to polyvinylidene difluoride membranes (Bio-Rad, Hercules, Calif.). Membranes were blocked overnight at 4° C. in blocking buffer (Li-Cor Biosciences, Lincoln, Nebr.). After several washes, membranes were probed with ERK1/2, phospho-ERK1/2 or β-Actin specific antibodies diluted in blocking buffer (Li-Cor) for 1 h at room temperature. After washes, membranes were incubated with the appropriate horseradish peroxidase-conjugated secondary antibody for 1 h at room temperature, and blots were then developed using a chemiluminescent detection. Analysis of MEK1/2 activation was performed as described above except primary antibody incubation was overnight at 4° C.
# ERK1/2 = ERK1/2 activation by Western blot; type: cell-based, human; conditions: activated THP-1 cells, compared to media control
# Procedure: as §1, §2
# H2 receptor = target: T1, H2 receptor (Mus musculus, UniProt P97292); conditions: endotoxin shock (LPS challenge) and hepatitis (LPS plus galactosamine challenge); cited from earlier work
# T1 construct: host or cells: living mice (endogenous receptor)
# T1 sequence (P97292 whole entry): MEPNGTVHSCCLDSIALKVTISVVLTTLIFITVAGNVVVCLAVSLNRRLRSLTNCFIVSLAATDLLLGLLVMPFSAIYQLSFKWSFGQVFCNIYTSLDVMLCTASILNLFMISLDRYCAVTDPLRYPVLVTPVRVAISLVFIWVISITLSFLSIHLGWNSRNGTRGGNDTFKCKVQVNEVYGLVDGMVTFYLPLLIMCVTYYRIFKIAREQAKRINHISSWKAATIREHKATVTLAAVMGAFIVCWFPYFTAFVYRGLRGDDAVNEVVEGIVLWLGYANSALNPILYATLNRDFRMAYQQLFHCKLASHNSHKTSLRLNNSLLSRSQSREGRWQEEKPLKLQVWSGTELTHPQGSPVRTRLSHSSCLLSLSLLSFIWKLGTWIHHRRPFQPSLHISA
# [2] = tested on: intracellular cAMP in THP-1 cells (H2 receptor signaling); experiment: Intracellular cAMP in TLR2-stimulated THP-1 cells; type: cell-based, human; conditions: THP-1 cells stimulated with TLR2 agonist
# Procedure: The H2 receptor is a G protein linked receptor that can activate adenylate cyclase and increase intracellular cAMP. TNF can be inhibited at the level of transcription by cAMP and cAMP analogs. THP-1 cells were stimulated with a TLR2 agonist in the presence of a medium control, 6475 supernatant or histamine with or without an H2 receptor antagonist and intracellular levels of cAMP were measured. […] A synthetic analog of cAMP, dibutyryl cAMP (dcAMP), was added to TLR2-stimulated THP-1 cells and the effect on TNF production was monitored.
# [3] = tested on: peripheral blood mononuclear cells; conditions: cited from earlier work
# TNFR1 [4] = conditions: cultured human endothelial cells; cited from earlier work
# TNFR1 [5] = conditions: injection into human skin engrafted on immunodeficient mice; cited from earlier work
# [6] = tested on: LPS-stimulated human monocytes and macrophages; conditions: cited from earlier work
# LPS-induced liver injury = conditions: mouse; cited from earlier work
# patients with IBS = conditions: cited from earlier work
compound,measurement,setting,value
"Cl.Cl.O=S(=O)(NCCNCC=Cc1ccc(Br)cc1)c1cccc2cnccc12 [H89, N-[2-(p-bromocinnamylamino)ethyl]-5-isoquinolinesulfonamide dihydrochloride]",block of TNF inhibition by PKA inhibitor,"[1]; H89 10^-5 M in presence of 6475 supernatant, fraction B3, histamine or dcAMP",partially blocked TNF inhibition
N#CC(=C(/N)Sc1ccccc1N)/C(C#N)=C(\N)Sc1ccccc1N [U0126],TNF production,[1]; U0126 treatment for 30 min prior to TLR2 agonist stimulation,sufficient to prevent TNF production
same,phosphorylation (activation) of MEK1/2,MEK1/2,blocks phosphorylation; also recorded: suppressed activation of MEK1/2
same,phosphorylation (activation) of ERK1/2,ERK1/2,blocks phosphorylation; also recorded: suppressed activation of ERK1/2
CN/C(=N/CCSCc1nc[nH]c1C)NC#N [cimetidine],block of TNF-inhibition by histamine,[1],could block TNF-inhibition by histamine in a concentration dependent manner
"CCCC(=O)Nc1ncnc2c1ncn2[C@@H]1O[C@@H]2COP(=O)(O)O[C@H]2[C@H]1OC(=O)CCC [dcAMP, dibutyryl cAMP]",TNF production,[1]; dcAMP 10^-5-10^-3 M added to TLR2-stimulated THP-1 cells,sufficient to inhibit TNF production
CN(C)CCCSC(=N)N [dimaprit],plasma TNF levels,H2 receptor,reduced plasma TNF levels
NCCc1c[nH]cn1 [histamine],TNF production (TNF inhibition),[1],concentration dependent; also recorded: significantly inhibited TNF production
same,TNF production (TNF inhibition),[1]; listed as Histamine,significantly inhibit TNF production
same,intracellular cAMP,[2],increase in cAMP; also recorded: increased intracellular cAMP
same,phosphorylation (activation) of MEK1/2,MEK1/2,blocks phosphorylation; also recorded: suppressed activation of MEK1/2
same,phosphorylation (activation) of ERK1/2,ERK1/2,blocks phosphorylation; also recorded: suppressed activation of ERK1/2
same,LPS-induced synthesis of TNF-α,[3],suppressed
same,"TNFR1 surface level, shedding and mobilization",TNFR1 [4],"transient loss of surface TNFR1, increased TNFR1 shedding, and mobilization of TNFR1 molecules from the Golgi"
same,TNFR1 shedding and TNF-mediated induction of endothelial adhesion molecules,TNFR1 [5],caused shedding of TNFR1 and diminished TNF-mediated induction of endothelial adhesion molecules
same,"production of pro-inflammatory cytokines IL-1, IL-12 and TNF",[6]; LPS-stimulated human monocytes and macrophages,can inhibit production
same,production of anti-inflammatory cytokine IL-10,[6]; via the H2 receptor,can stimulate production
same,protection in LPS-induced liver injury,LPS-induced liver injury,protective
COc1ccc2c(c1)c(CC(=O)O)c(C)n2C(=O)c1ccc(Cl)cc1 [indomethacin],block of TNF-inhibition by histamine,[1],no effect
CN1CCC(=C2c3ccccc3CC(=O)c3sccc32)CC1 [ketotifen],IBS symptoms,patients with IBS; patients with IBS,decreased IBS symptoms
same,pain threshold,patients with IBS; patients with IBS,increased pain threshold
same,number or activity of mast cells (histamine and tryptase release),patients with IBS; rectal biopsy tissue,no change
